Data taken from patent US20240252693A1, “FOLATE RECEPTOR-TARGETED RADIOTHERAPEUTIC AGENTS AND THEIR USE” (Novartis AG, priority 2021, published 2024).

Legend:
FR-positive M109 tumor = assay: In vivo biodistribution in mice bearing M109 tumors; conditions: 177Lu chelate
Description: Four- to eight-week-old female nu/nu mice or NSG mice (Harlan Sprague-Dawley, Inc.) were maintained on a standard 12-h light-dark cycle and fed ad libitum with Folate deficient purified rodent diet (TestDiet #AIN-93G) for the duration of the experiment. FR-positive M109 or FR-negative HT29 tumor cells were inoculated in the subcutis dorsal medial area of mice. The biodistribution studies were typically performed when tumors were approximately 400-800 mm^3 in volume. Mice were divided into groups of three, and freshly prepared test articles and competitors were injected through the lateral tail vein in a volume of 100 μL/10 g of PBS. Four h to six days post radioactive-agent dose administration, mice were euthanized and organs (blood, heart, lungs, liver, spleen, and kidneys, intestine, stomach, muscle, brain and tumor) were collected, weighed and placed inside counting vials. Each tissue sample was counted for the activities of radioelement using a gamma-counter. Samples of the injectate were used as decay correction standards. Final bar graphs are expressed as % injected dose per gram of tissue or tumor to kidney ratio, or % tumor to (kidneys+liver+spleen) ratio.

KB tumor = assay: In vivo biodistribution in mice bearing KB tumors; conditions: 177Lu chelate, 200 nmol/kg

| SMILES | T/Kid (FR-positive M109 tumor; 300 nmol/kg) | T/Liv (FR-positive M109 tumor; 300 nmol/kg) | T/spl (FR-positive M109 tumor; 300 nmol/kg) | T^2/kid (FR-positive M109 tumor; 300 nmol/kg) | T/Kid (KB tumor) | T/Liv (KB tumor) | T/spl (KB tumor) | T^2/kid (KB tumor) | other results |
| --- | --- | --- | --- | --- | --- | --- | --- | --- | --- |
| Nc1nc2ncc(CNc3ccc(C(=O)NCCCC[C@H](NC(=O)CN4CCN(CC(=O)O)CCN(CC(=O)O)CCN(CC(=O)O)CC4)C(=O)O)cc3)nc2c(=O)[nH]1 [Compound 46, DOTA-Lys(Pte)-OH] |  |  |  |  | 0.19 +/− 0.03 | 6.3 +/− 1.9 | 66.9 +/− 30.8 | 0.84 +/− 0.32 |  |
| CSCC[C@H](NC(=O)CN1CCN(CC(=O)O)CCN(CC(=O)O)CCN(CC(=O)O)CC1)C(=O)N[C@H](C(=O)N[C@@H](CCCCNC(=O)C[C@H](NC(=O)c1ccc(NCc2cnc3nc(N)[nH]c(=O)c3n2)cc1)C(=O)O)C(=O)O)C(C)C [Compound 54, Pte-Asp(DOTA-Met-Val-ε-Lys-OH)—OH] |  |  |  |  |  |  |  |  | T/Kid (FR-positive M109 tumor; 200 nmol/kg): 0.23 +/− 0.03; T/Liv (FR-positive M109 tumor; 200 nmol/kg): 9.0 +/− 0.9; T/spl (FR-positive M109 tumor; 200 nmol/kg): 56.4 +/− 6.2; T^2/kid (FR-positive M109 tumor; 200 nmol/kg): 0.76 +/− 0.12 |
| CSCC[C@H](NC(=S)Nc1ccc(CC2CN(CC(=O)O)CCN(CC(=O)O)CCN(CC(=O)O)CCN2CC(=O)O)cc1)C(=O)N[C@H](C(=O)N[C@@H](CCCCN1C(=O)CC(SC[C@@H](NC(=O)[C@H](CC(=O)O)NC(=O)[C@H](CC(=O)O)NC(=O)[C@H](CCCNC(=N)N)NC(=O)[C@H](CC(=O)O)NC(=O)CC[C@H](NC(=O)c2ccc(NCc3cnc4nc(N)[nH]c(=O)c4n3)cc2)C(=O)O)C(=O)O)C1=O)C(=O)O)C(C)C (stereo partly drawn) [Compound 58, DOTA-Bn-NHC(S)NH-Met-Val-Lys(Mal-S-Cys-Asp-Asp-Arg-Asp-Folate)-OH] | 0.59 +/− 0.12 | 28.8 +/− 2.9 | 83.1 +/− 17.3 | 0.59 +/− 0.16 |  |  |  |  |  |
| Nc1nc2ncc(CNc3ccc(C(=O)N[C@@H](Cc4ccc(OCCNC(=O)CN5CCN(CC(=O)O)CCN(CC(=O)O)CCN(CC(=O)O)CC5)cc4)C(=O)O)cc3)nc2c(=O)[nH]1 [Compound 64, Pte-Tyr(OCH2CH2—NH-DOTA)-OH] | 0.38 +/− 0.07 | 14.6 +/− 2.0 | 85.5 +/− 7.7 | 1.48 +/− 0.51 |  |  |  |  |  |
| Nc1nc2ncc(CNc3ccc(C(=O)N[C@@H](CNC(=O)CNC(=O)CN4CCN(CC(=O)O)CCN(CC(=O)O)CCN(CC(=O)O)CC4)C(=O)O)cc3)nc2c(=O)[nH]1 [Compound 68, Pte-Dap(Gly-DOTA)-OH] |  |  |  |  |  |  |  |  | T/Kid (FR-positive M109 tumor; 200 nmol/kg): 0.29 +/− 0.08; T/Liv (FR-positive M109 tumor; 200 nmol/kg): 10.1 +/− 3.2; T/spl (FR-positive M109 tumor; 200 nmol/kg): 55.6 +/− 17.1; T^2/kid (FR-positive M109 tumor; 200 nmol/kg): 1.37 +/− 0.73 |

Second part, led by results:

| T/Kid (FR-positive M109 tumor; 300 nmol/kg) | T/Liv (FR-positive M109 tumor; 300 nmol/kg) | T/spl (FR-positive M109 tumor; 300 nmol/kg) | T^2/kid (FR-positive M109 tumor; 300 nmol/kg) | T/Kid (KB tumor) | T/Liv (KB tumor) | T/spl (KB tumor) | T^2/kid (KB tumor) | SMILES | other results |
| --- | --- | --- | --- | --- | --- | --- | --- | --- | --- |
| 0.49 +/− 0.16 | 17.3 +/− 4.9 | 84.4 +/− 10.4 | 1.64 +/− 0.62 |  |  |  |  | Nc1nc2ncc(CNc3ccc(C(=O)N[C@@H](CCCCNC(=O)C[C@H](NC(=O)[C@H](Cc4ccc5ccccc5c4)NC(=O)[C@H](Cc4ccc5ccccc5c4)NC(=O)CN4CCN(CC(=O)O)CCN(CC(=O)O)CCN(CC(=O)O)CC4)C(=O)O)C(=O)O)cc3)nc2c(=O)[nH]1 [Compound 42, Pte-Lys(β-Asp-2-Nal-2-Nal-DOTA)-OH] |  |
| 0.58 +/− 0.10 | 13.0 +/− 3.7 | 70.2 +/− 6.7 | 1.57 +/− 0.53 |  |  |  |  | Nc1nc2ncc(CNc3ccc(C(=O)N[C@@H](CCCCNC(=O)C[C@H](NC(=O)[C@H](Cc4ccc(Br)cc4)NC(=O)CNC(=O)CN4CCN(CC(=O)O)CCN(CC(=O)O)CCN(CC(=O)O)CC4)C(=O)O)C(=O)O)cc3)nc2c(=O)[nH]1 [Compound 43, Pte-Lys(β-Asp-4-Br-Phe-Gly-DOTA)-OH] |  |
|  |  |  |  | 0.16 +/− 0.01 | 6.8 +/− 1.1 | 50.7 +/− 24.0 | 0.64 +/− 0.19 | Nc1nc2ncc(CNc3ccc(C(=O)NCCCC[C@H](NC(=O)CNC(=O)CN4CCN(CC(=O)O)CCN(CC(=O)O)CCN(CC(=O)O)CC4)C(=O)O)cc3)nc2c(=O)[nH]1 [Compound 45, DOTA-Gly-Lys(Pte)-OH] |  |
|  |  |  |  | 0.32 +/− 0.09 | 11.0 +/− 2.3 | 54.8 +/− 11.3 | 1.35 +/− 0.54 | Nc1nc2ncc(CNc3ccc(C(=O)N[C@@H](CC(=O)NCCCC[C@H](NC(=O)CNC(=O)CN4CCN(CC(=O)O)CCN(CC(=O)O)CCN(CC(=O)O)CC4)C(=O)O)C(=O)O)cc3)nc2c(=O)[nH]1 [Compound 51, Pte-Asp(DOTA-Gly-ε-Lys-OH)—OH] |  |
| 0.27 +/− 0.03 | 8.6 +/− 3.9 | 40.3 +/− 18.7 | 1.05 +/− 0.28 |  |  |  |  | Nc1nc2ncc(CNc3ccc(C(=O)N[C@@H](Cc4ccc(OCC(=O)NCCNC(=O)CN5CCN(CC(=O)O)CCN(CC(=O)O)CCN(CC(=O)O)CC5)cc4)C(=O)O)cc3)nc2c(=O)[nH]1 [Compound 61, Pte-Tyr(OCH2CO-EDA-DOTA)-OH] |  |
